Results reported in patent US20260250290A1 (BRISTOL-MYERS SQUIBB COMPANY, priority 2023, published 2026).
Structures can show the parent of a compound that is named as a salt.

Target: T1, full length SGK1 (Homo sapiens, UniProt O00141)
T1 construct: 125 μM full length SGK1 (Life Technologies Part #PR7358A); purchased Life Technologies PR7358A
T1 sequence (O00141 1-431): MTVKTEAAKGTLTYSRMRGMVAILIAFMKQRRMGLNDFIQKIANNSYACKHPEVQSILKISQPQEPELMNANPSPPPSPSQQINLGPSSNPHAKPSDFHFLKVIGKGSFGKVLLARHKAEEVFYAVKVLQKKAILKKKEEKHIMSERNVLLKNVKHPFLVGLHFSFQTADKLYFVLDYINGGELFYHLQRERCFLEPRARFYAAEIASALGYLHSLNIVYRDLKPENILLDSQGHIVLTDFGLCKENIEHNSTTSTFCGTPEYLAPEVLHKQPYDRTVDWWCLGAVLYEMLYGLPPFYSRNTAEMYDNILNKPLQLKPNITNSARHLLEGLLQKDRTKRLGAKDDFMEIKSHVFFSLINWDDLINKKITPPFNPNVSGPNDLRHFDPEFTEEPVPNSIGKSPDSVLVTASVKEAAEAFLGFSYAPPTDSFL
Experiment: SGK1 inhibition Assay A (Caliper LabChip electrophoretic separation of fluorescent peptide substrate and phosphorylated product)
Format: biochemical
Conditions: Assay A; 20 μM ATP, 40 min incubation; read-out: SGK1 IC50

| Compound | IC50 |
| --- | --- |
| Nc1ncnn2c(-c3cncnc3)cc(N3CCC[C@@H](NC(=O)c4sc(Cl)cc4OC4CCN(C5COC5)CC4)C3)c12 [Example 584] | 26 nM |
| CNc1cccc(C(=O)N[C@@H]2CCCN(c3cc(C4=CCN(C(C)=O)C4)n4ncnc(N)c34)C2)n1 [Example 778, (R)-N-(1-(7-(1-acetyl-2,5-dihydro-1H-pyrrol-3-yl)-4-aminopyrrolo[2,1-f][1,2,4]triazin-5-yl)piperidin-3-yl)-6-(methylamino)picolinamide] | 21 nM |
| CS(=O)(=O)c1ccc(-c2cc(N3CCC[C@@H](NC(=O)c4cn5ccncc5n4)C3)c3c(N)ncnn23)cc1 [Example 42, (R)-N-(1-(4-amino-7-(4-(methylsulfonyl)phenyl)pyrrolo 2,1-f][1,2,4]triazin-5-yl)piperidin-3-yl)imidazo[1,2-alpyrazine-2-carboxamide, TFA] | 187 nM |
| COC(=O)N1CCC(c2cc(N3CCC[C@@H](NC(=O)c4sc5ccccc5c4OC4CN(C(=O)OC(C)(C)C)C4)C3)c3c(N)ncnn23)C1 (stereo partly drawn) [Example 671, methyl 3-(4-amino-5-((R)-3-(3-((1-(tert-butoxycarbonyl)azetidin-3-yl)oxy)benzo[b]thiophene-2-carboxamido)piperidin-1-yl)pyrrolo[2,1-f][1,2,4]triazin-7-yl)pyrrolidine-1-carboxylate] | 67 nM |
| CC1(NC(=O)c2ccc(Cl)s2)CCCN(c2cc(-c3ccc(S(C)(=O)=O)cc3)n3ncnc(N)c23)C1 (centres unmarked) [Example 145, N-(1-(4-amino-7-(4-(methylsulfonyl)phenyl)pyrrolo[2,1-f][1,2,4]triazin-5-yl)-3-methylpiperidin-3-yl)-5-chlorothiophene-2-carboxamide, TFA] | 765 nM |
| CS(=O)(=O)c1ccc(-c2cc(N3CCC[C@@H](NC(=O)c4cnco4)C3)c3c(N)ncnn23)cc1 [Example 61, (R)-N-(1-(4-amino-7-(4-(methylsulfonyl)phenyl)pyrrolo[2,1-f][1,2,4]triazin-5-yl)piperidin-3-yl)oxazole-5-carboxamide] | 33 nM |
| CC(=O)N1CC=C(c2cc(N3CCC[C@@H](NC(=O)c4ccc(-c5cnc(C#N)nc5)s4)C3)c3c(N)ncnn23)C1 [Example 552, (R)-N-(1-(7-(1-acetyl-2,5-dihydro-1H-pyrrol-3-yl)-4-aminopyrrolo[2,1-f][1,2,4]triazin-5-yl)piperidin-3-yl)-5-(2-cyanopyrimidin-5-yl)thiophene-2-carboxamide] | 27 nM |
| CS(=O)(=O)N1CC=C(c2cc(N3CCC[C@@H](NC(=O)c4ccnc(F)c4)C3)c3c(N)ncnn23)C1 [Example 117, (R)—N-(1-(4-amino-7-(1-(methylsulfonyl)-2,5-dihydro-1H-pyrrol-3-yl)pyrrolo[2,1-f][1,2,4]triazin-5-yl)piperidin-3-yl)-2-fluoroisonicotinamide, TFA] | 6 nM |
| CN(C)CCOc1c(C(=O)N[C@@H]2CCCN(c3cc(-c4ccc(C(N)=O)nc4)n4ncnc(N)c34)C2)sc2ccccc12 [Example 664, (R)-5-(4-amino-5-(3-(3-(2-(dimethylamino)ethoxy)benzo[b]thiophene-2-carboxamido)piperidin-1-yl)pyrrolo[2,1-f][1,2,4]triazin-7-yl)picolinamide] | 13 nM |
| CC(=O)N1CC=C(c2cc(N3CCC[C@@H](NC(=O)c4cccnc4OCCN(C)C)C3)c3c(N)ncnn23)C1 [Example 723, (R)-N-(1-(7-(1-acetyl-2,5-dihydro-1H-pyrrol-3-yl)-4-aminopyrrolo[2,1-f][1,2,4]triazin-5-yl)piperidin-3-yl)-2-(2-(dimethylamino)ethoxy) nicotinamide] | 267 nM |
| CS(=O)(=O)c1ccc(-c2cc(N3CCC[C@@H](NC(=O)CCc4ccccc4)C3)c3c(N)ncnn23)cc1 [Example 15, (R)-N-(1-(4-amino-7-(4-(methylsulfonyl)phenyl)pyrrolo[2,1-f][1,2,4]triazin-5-yl)piperidin-3-yl)-3-phenylpropanamide, TFA] | 499 nM |
| Cc1nc(C)c(C(=O)N[C@@H]2CCCN(c3cc(-c4ccnc(C#N)c4)n4ncnc(N)c34)C2)s1 [Example 513, (R)-N-(1-(4-amino-7-(2-cyanopyridin-4-yl)pyrrolo[2,1-f][1,2,4]triazin-5-yl)piperidin-3-yl)-2.4-dimethylthiazole-5-carboxamide] | 32 nM |
| CN(C)CCOc1cc(Cl)sc1C(=O)N[C@@H]1CCCN(c2cc(-c3ccc4ncnn4c3)n3ncnc(N)c23)C1 [Example 193, (R)-N-(1-(7-([1,2,4]triazolo{1,5-a]pyridin-6-yl)-4-aminopyrrolo[2,1-f][1,2,4]triazin-5-yl)piperidin-3-yl)-5-chloro-3-(2-(dimethylamino)ethoxy) thiophene-2-carboxamide] | 25 nM |
| N#Cc1ncc(-c2cc(N3CCC[C@@H](NC(=O)c4ccc(C(F)F)s4)C3)c3c(N)ncnn23)cn1 [Example 502, (R)-N-(1-(4-amino-7-(2-cyanopyrimidin-5-yl)pyrrolo[2,1-f][1,2,4]triazin-5-yl)piperidin-3-yl)-5-(difluoromethyl)thiophene-2-carboxamide] | 39 nM |
| CS(=O)(=O)N1C=C(c2cc(N3CCC[C@@H](NC(=O)c4ccnc(F)c4)C3)c3c(N)ncnn23)CC1 [Example 118, (R)—N-(1-(4-amino-7-(1-(methylsulfonyl)-4,5-dihydro-1H-pyrrol-3-yl)pyrrolo[2,1-f][1,2,4]triazin-5-yl)piperidin-3-yl)-2-fluoroisonicotinamide, TFA] | 130 nM |
| COC(=O)N1CC=C(c2cc(N3CCC[C@@H](NC(=O)c4sc(C(F)F)cc4OCCNC(C)=O)C3)c3c(N)ncnn23)C1 [Example 423, Methyl (R)-3-(5-(3-(3-(2-acetamidoethoxy)-5-(difluoromethyl)thiophene-2-carboxamido)piperidin-1-yl)-4-aminopyrrolo[2,1-f][1,2,4]triazin-7-yl)-2,5-dihydro-1H-pyrrole-1-carboxylate] | 30 nM |

Second part, the compound after the results:

| IC50 | Compound |
| --- | --- |
| 4 nM | NC(=O)c1ccc(-c2cc(N3CCC[C@@H](NC(=O)c4sc(Cl)cc4OCC4CCNCC4)C3)c3c(N)ncnn23)cc1F [Example 642, (R)-N-(1-(4-amino-7-(4-carbamoyl-3-fluorophenyl)pyrrolo[2,1-f][1,2,4]triazin-5-y1)piperidin-3-y1)-5-chloro-3-(piperidin-4-ylmethoxy)thiophene-2-carboxamide] |
| 4 nM | CC(=O)N1CC=C(c2cc(N3CCC[C@@H](NC(=O)c4sc(Cl)cc4OCC4CCCN4C)C3)c3c(N)ncnn23)C1 (single isomer, unassigned) [Example 391] |
| 1 nM | CN(C)CCOc1cc(Cl)sc1C(=O)N[C@@H]1CCCN(c2cc(-c3ccc(C=O)cc3)n3ncnc(N)c23)C1 [Example 276, (R)—N-(1-(4-amino-7-(4-formylphenyl)pyrrolo[2,1-f][1,2,4]triazin-5-yl)piperidin-3-yl)-5-chloro-3-(2-(dimethylamino)ethoxy)thiophene-2-carboxamide] |
| 10 nM | CCc1ccc(C(=O)N[C@@H]2CCCN(c3cc(-c4ccc(S(C)(=O)=O)cc4)n4ncnc(N)c34)C2)s1 [Example 91, (R)-N-(1-(4-amino-7-(4-(methylsulfonyl)phenyl)pyrrolo[2,1-f][1,2,4]triazin-5-yl)piperidin-3-yl)-5-ethylthiophone-2-carboxamide] |
| 2 nM | Cc1ccc(C(=O)N[C@@H]2CCCN(c3cc(-c4ccncc4)n4ncnc(N)c34)C2)s1 [Example 128, N-[(3R)-1-[4-amino-7-(pyridin-4-yl)pyrrolo[2,1-f][1,2,4]triazin-5-yl]piperidin-3-yl]-5-methylthiophene-2-carboxamide] |
| 12 nM | CS(=O)(=O)c1ccc(-c2cc(N3CCC[C@@H](NC(=O)c4ccncc4)C3)c3c(N)ncnn23)cc1 [Example 27, (R)-N-(1-(4-amino-7-(4-(methylsulfonyl)phenyl)pyrrolo[2,1-f][1,2,4]triazin-5-yl)piperidin-3-yl)isonicotinamide] |
| 2 nM | Cc1ccc(C(=O)N[C@@H]2CCCN(c3cc(-c4ccnc(F)c4)n4ncnc(N)c34)C2)s1 [Example 131, N-[(3R)-1-[4-amino-7-(2-fluoropyridin-4-yl)pyrrolo[2,1-f][1,2,4]triazin-5-yl]piperidin-3-yl]-5-methylthiophene-2-carboxamide] |
| 4 nM | CC(=O)N1CC=C(c2cc(N3CCC[C@@H](NC(=O)c4sc(Cl)cc4OC4CCNCC4F)C3)c3c(N)ncnn23)C1 (stereo partly drawn) [Example 601, N-((R)-1-(7-(1-acetyl-2,5-dihydro-1H-pyrrol-3-yl)-4-aminopyrrolo[2,1-f][1,2,4]triazin-5-yl)piperidin-3-y1)-5-chloro-3-((3-fluoropiperidin-4-yl)oxy)thiophene-2-carboxamide] |
| 3 nM | Nc1ncnn2c(-c3ccc(C(F)F)nc3)cc(N3CCC[C@@H](NC(=O)c4ccc(Cl)s4)C3)c12 [Example 248, (R)-N-(1-(4-amino-7-(6-(difluoromethyl)pyridin-3-yl)pyrrolo[2,1-f][1,2,4]triazin-5-yl)piperidin-3-yl)-5-chlorothiophene-2-carboxamide, TFA] |
| 11 nM | CC(=O)N1CCC(Oc2cc(C(F)F)sc2C(=O)N[C@@H]2CCCN(c3cc(-c4ccc(=O)n(CC(F)F)c4)n4ncnc(N)c34)C2)CC1 [Example 414, (R)-3-((1-acetylpiperidin-4-yl)oxy)-N-(1-(4-amino-7-(1-(2,2-difluoroethyl)-6-oxo-1,6-dihydropyridin-3-yl)pyrrolo[2,1-f][1,2,4]triazin-5-yl)piperidin-3-yl)-5-(difluoromethyl)thiophene-2-carboxamide] |
